Experimental data reported in patent US20260365618A1 (priority 2022, published 2026).
Several values for one entry are separate records, joined by “and”; a condition that tells them apart may be missing. Identical values can stand only once. Entries after “also recorded” stand apart in the source; their conditions may differ. Like-named read-outs stand apart in the source and are kept apart here.

Legend:
[1] = system: F. tularensis subsp. tularensis; assay: microbe, parasite or virus in culture; format: cell-based, Francisella tularensis subsp. tularensis
[2] = system: F. tularensis subsp. novicida; format: cell-based, Francisella tularensis subsp. novicida
F. tularensis, total = format: cell-based, Francisella tularensis
[3] = system: F. tularensis subsp. holarctica; assay: microbe, parasite or virus in culture; format: cell-based, Francisella tularensis subsp. holarctica
[4] = system: F. tularensis subsp. tularensis strain SchuS4; set-up: species or system mice; conditions: mouse
[5] = system: F. tularensis subsp. tularensis strain SchuS4; format: in vivo, mice

Row | Compound | in vitro activity (in words) [1] | activity (in words) ([2]; subsp. novicida) | MIC ([2]; subsp. novicida, N=1, CAMHB + 2% Isovitalex, 35 °C, 48 h) [µg/mL] | antimicrobial activity against F. tularensis (in words) (F. tularensis, total) | in vitro activity (in words) (F. tularensis, total) | MIC ([1]; Francisella tularensis, read-out: concentration at which all subsp. tularensis isolates were inhibited) [µg/mL] | activity / MIC values compared with subsp. tularensis (in words) [3] | activity (in words) [2] | efficacy in the murine in vivo model (in words) [4] | animals surviving until day 45 ([4]; in vivo) | effect of oral treatment on survival (in words) ([4]; in vivo) | mortality 5 days after the last treatment ([4]; in vivo) [%] | survival by the end of treatment (Day 15) ([4]; in vivo) | bacterial load in spleen ([5]; animals surviving until day 45 (ciprofloxacin: average of two; Lefamulin: one), spleen) | bacterial load in lung ([5]; one remaining Lefamulin-treated animal, day 45, lung)
1 | CC[C@H]1OC(=O)[C@H](C)[C@@H](O[C@H]2C[C@@](C)(OC)[C@@H](O)[C@H](C)O2)[C@H](C)[C@@H](O[C@@H]2O[C@H](C)C[C@H](N(C)C)[C@H]2O)[C@](C)(O)C[C@@H](C)C(=O)[C@H](C)[C@@H](O)[C@]1(C)O [Erythromycin] | slightly weaker activity | inactive | ≥8 | – | – | – | – | – | – | – | – | – | – | – | –
2 | C=C[C@]1(C)C[C@@H](OC(=O)CS[C@@H]2CC[C@@H](N)C[C@H]2O)[C@]2(C)[C@H](C)CC[C@]3(CCC(=O)[C@H]32)[C@@H](C)[C@@H]1O [Lefamulin, 14-O-{[(1R, 2R, 4R)-4-amino-2-hydroxy-cyclohexylsulfanyl]-acetyl}-mutilin] | surprisingly potent activity | – | – | active in vitro and in vivo; also recorded: potent inhibition | potent in vitro activity | ≤ 4 | slightly higher | Potent activity | comparable efficacy | one | effective in prolonging the survival | ~100 | 100% and 90% | 7.7×10^6 CFU/g | 1.3×10^6 CFU/g
